Laboratory results taken from PMC11167047 (Cell Death Discovery, 2024).

How the values were obtained:
Test in all cases: kinome screen (33PanQinase)
Type in all cases: biochemical
[1] = target: T1, SIK3 (Homo sapiens, UniProt Q9Y2K2)
T1 construct: purchased Reaction Biology Europe GmbH (formerly ProQinase)
Experimental: (§1) The Kinome Screening was performed by Reaction Biology Europe GmbH (http://reactionbiology.com; Freiburg i. Br., Germany).

[2] = target: T2, CDK2/CycD1 (Homo sapiens, UniProt P24941)
T2 construct: purchased Reaction Biology Europe GmbH (formerly ProQinase)
Experimental: as §1

[3] = target: T3, FER (Homo sapiens, UniProt P16591)
T3 construct: purchased Reaction Biology Europe GmbH (formerly ProQinase)
Experimental: as §1

[4] = target: T4, GSK3β (Homo sapiens, UniProt P49841)
T4 construct: purchased Reaction Biology Europe GmbH (formerly ProQinase)
Experimental: as §1

[5] = target: T5, DYRK2 (Homo sapiens, UniProt Q92630)
T5 construct: purchased Reaction Biology Europe GmbH (formerly ProQinase)
T5 sequence (Q92630 1-601): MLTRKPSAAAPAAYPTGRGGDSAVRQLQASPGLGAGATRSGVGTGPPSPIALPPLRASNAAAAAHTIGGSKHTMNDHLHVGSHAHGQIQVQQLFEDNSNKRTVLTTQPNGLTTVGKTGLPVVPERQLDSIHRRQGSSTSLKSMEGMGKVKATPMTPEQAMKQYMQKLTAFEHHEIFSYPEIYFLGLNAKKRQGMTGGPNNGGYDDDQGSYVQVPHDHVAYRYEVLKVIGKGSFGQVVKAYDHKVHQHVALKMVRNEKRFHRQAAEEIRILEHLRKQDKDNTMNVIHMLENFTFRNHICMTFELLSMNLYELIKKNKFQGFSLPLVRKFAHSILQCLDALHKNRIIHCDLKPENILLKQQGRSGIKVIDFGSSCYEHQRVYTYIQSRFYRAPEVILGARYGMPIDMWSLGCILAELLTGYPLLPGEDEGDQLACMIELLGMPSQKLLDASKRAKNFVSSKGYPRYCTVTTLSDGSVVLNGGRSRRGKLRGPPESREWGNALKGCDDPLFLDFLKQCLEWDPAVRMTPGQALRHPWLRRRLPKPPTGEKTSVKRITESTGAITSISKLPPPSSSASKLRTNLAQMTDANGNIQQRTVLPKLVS
Experimental: as §1

[6] = target: T6, PKMzeta (Homo sapiens, UniProt Q05513)
T6 construct: PKMzeta; purchased Reaction Biology Europe GmbH (formerly ProQinase)
T6 sequence (Q05513 184-592 limits assumed): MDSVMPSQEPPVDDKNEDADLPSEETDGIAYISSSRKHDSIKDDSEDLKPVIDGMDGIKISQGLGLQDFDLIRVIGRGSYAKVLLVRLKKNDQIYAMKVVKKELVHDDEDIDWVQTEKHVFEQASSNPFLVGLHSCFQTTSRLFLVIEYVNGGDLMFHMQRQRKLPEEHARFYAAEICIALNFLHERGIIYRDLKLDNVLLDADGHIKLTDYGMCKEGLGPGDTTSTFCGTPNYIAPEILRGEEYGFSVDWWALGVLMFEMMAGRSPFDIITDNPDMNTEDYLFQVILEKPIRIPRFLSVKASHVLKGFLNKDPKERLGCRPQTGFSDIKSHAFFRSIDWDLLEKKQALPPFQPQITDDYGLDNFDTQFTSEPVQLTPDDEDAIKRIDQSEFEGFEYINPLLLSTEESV
Experimental: as §1

[7] = target: T7, p38γ (Homo sapiens, UniProt P53778)
T7 construct: purchased Reaction Biology Europe GmbH (formerly ProQinase)
T7 sequence (P53778 1-367): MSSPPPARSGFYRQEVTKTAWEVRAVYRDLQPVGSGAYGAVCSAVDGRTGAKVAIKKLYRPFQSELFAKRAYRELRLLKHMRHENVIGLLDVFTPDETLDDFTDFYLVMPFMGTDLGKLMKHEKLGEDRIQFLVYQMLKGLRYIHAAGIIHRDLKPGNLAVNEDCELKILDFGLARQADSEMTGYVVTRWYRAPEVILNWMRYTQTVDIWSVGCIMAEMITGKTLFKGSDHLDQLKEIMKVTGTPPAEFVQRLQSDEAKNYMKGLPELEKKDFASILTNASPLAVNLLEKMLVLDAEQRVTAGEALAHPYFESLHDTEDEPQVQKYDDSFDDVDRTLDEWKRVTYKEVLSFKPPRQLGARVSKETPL
Experimental: as §1

[8] = target: T8, INSR (Homo sapiens, UniProt P06213)
T8 construct: purchased Reaction Biology Europe GmbH (formerly ProQinase)
Experimental: as §1

[9] = target: T9, MEK2 (Homo sapiens, UniProt P36507)
T9 construct: purchased Reaction Biology Europe GmbH (formerly ProQinase)
Experimental: as §1

[10] = target: T10, MAPKAPK3 (Homo sapiens, UniProt Q16644)
T10 construct: purchased Reaction Biology Europe GmbH (formerly ProQinase)
Experimental: as §1

[11] = target: T11, RPS6KA6 (Homo sapiens, UniProt Q9UK32)
T11 construct: purchased Reaction Biology Europe GmbH (formerly ProQinase)
Experimental: as §1

[12] = target: T12, KIT (Homo sapiens, UniProt P10721)
T12 construct: purchased Reaction Biology Europe GmbH (formerly ProQinase)
Experimental: as §1

[13] = target: T13, PKA (Homo sapiens, UniProt P17612)
T13 construct: purchased Reaction Biology Europe GmbH (formerly ProQinase)
Experimental: as §1

[14] = target: T14, SLK (Homo sapiens, UniProt Q9H2G2)
T14 construct: purchased Reaction Biology Europe GmbH (formerly ProQinase)
Experimental: as §1

T14 sequence (Q9H2G2 whole entry): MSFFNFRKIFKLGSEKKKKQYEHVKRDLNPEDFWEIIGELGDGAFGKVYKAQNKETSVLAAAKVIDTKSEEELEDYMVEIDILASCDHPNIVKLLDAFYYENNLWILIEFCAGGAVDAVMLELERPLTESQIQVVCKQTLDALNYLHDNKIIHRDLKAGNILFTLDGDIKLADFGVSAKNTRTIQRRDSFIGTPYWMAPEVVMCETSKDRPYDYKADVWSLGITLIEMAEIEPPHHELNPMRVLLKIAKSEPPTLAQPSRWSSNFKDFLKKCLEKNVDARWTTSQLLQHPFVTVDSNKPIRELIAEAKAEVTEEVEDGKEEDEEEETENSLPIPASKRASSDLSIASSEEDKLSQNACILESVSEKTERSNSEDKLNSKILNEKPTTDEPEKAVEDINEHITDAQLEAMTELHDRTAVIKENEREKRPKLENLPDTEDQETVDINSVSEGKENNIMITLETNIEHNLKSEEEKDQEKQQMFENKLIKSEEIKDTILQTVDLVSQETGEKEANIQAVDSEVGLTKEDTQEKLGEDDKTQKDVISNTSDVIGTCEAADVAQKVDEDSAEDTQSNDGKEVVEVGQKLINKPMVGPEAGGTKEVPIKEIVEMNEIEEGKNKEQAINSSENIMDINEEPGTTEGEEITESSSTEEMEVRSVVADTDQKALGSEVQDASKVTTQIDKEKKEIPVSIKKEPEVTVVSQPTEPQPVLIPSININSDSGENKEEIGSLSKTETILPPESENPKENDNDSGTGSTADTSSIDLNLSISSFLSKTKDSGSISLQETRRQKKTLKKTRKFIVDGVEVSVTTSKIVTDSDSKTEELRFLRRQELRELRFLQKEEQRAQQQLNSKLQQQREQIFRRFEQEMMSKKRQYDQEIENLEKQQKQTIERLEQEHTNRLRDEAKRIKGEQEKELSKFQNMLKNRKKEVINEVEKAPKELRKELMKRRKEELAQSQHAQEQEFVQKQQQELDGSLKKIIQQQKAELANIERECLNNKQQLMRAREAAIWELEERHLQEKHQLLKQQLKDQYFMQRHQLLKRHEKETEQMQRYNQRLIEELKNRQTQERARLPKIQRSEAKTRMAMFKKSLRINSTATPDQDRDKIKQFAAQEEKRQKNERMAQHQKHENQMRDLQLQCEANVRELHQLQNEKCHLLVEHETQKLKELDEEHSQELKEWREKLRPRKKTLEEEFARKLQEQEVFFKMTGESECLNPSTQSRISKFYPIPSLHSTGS
T8 sequence (P06213 28-1382): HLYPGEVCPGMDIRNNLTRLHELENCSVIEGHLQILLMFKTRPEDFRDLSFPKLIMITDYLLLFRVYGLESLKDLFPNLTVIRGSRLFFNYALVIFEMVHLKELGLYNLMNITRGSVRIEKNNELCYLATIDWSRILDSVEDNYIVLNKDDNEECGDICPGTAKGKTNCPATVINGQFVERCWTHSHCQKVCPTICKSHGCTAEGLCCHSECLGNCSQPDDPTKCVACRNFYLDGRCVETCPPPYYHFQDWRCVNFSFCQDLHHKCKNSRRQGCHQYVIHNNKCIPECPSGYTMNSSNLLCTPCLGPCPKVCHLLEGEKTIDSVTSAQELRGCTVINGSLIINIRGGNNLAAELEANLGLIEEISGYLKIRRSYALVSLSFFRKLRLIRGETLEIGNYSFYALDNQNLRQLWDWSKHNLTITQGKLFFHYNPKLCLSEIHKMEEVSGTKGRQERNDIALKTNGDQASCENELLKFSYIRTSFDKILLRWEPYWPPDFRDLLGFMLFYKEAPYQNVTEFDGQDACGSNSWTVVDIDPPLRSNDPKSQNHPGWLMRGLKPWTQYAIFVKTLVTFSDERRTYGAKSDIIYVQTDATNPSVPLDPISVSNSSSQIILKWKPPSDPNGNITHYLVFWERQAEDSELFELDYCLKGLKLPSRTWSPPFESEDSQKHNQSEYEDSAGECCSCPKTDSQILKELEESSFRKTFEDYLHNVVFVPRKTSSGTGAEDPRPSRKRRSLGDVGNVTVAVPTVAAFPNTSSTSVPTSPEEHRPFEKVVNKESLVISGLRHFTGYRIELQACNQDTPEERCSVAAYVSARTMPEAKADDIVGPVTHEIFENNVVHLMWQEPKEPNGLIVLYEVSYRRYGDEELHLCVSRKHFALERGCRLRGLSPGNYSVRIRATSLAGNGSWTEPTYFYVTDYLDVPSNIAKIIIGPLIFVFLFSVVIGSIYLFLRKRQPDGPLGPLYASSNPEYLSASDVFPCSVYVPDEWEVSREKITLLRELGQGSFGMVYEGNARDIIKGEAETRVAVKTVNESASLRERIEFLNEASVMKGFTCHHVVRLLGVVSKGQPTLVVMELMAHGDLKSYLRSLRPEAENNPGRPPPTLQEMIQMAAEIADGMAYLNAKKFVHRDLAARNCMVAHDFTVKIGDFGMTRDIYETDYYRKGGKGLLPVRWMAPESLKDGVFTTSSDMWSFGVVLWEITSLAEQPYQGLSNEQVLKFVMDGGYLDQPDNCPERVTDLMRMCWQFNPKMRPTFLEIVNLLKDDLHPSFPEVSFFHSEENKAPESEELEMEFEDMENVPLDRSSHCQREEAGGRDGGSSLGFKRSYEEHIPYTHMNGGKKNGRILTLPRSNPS
T3 sequence (P16591 whole entry): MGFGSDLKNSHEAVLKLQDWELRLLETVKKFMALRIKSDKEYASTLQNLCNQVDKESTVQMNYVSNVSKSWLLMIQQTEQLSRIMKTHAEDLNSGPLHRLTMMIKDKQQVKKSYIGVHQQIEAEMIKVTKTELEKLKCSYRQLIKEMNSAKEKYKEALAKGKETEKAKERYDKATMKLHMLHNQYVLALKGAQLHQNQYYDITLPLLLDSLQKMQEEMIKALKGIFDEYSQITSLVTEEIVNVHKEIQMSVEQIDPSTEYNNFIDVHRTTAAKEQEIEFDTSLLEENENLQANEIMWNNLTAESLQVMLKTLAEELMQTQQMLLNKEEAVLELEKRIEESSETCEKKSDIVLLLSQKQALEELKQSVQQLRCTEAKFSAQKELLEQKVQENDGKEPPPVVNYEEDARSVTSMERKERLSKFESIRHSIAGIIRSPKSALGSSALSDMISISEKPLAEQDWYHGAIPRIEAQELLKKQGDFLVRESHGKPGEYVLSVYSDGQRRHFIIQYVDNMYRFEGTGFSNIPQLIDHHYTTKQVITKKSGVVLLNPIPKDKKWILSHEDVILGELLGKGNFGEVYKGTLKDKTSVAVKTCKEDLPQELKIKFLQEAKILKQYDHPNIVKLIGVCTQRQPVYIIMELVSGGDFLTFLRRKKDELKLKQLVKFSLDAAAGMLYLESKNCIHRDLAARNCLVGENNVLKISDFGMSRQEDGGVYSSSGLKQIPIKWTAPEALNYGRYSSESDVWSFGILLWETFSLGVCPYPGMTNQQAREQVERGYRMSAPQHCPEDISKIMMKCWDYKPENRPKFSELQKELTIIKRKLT
T12 sequence (P10721 26-976): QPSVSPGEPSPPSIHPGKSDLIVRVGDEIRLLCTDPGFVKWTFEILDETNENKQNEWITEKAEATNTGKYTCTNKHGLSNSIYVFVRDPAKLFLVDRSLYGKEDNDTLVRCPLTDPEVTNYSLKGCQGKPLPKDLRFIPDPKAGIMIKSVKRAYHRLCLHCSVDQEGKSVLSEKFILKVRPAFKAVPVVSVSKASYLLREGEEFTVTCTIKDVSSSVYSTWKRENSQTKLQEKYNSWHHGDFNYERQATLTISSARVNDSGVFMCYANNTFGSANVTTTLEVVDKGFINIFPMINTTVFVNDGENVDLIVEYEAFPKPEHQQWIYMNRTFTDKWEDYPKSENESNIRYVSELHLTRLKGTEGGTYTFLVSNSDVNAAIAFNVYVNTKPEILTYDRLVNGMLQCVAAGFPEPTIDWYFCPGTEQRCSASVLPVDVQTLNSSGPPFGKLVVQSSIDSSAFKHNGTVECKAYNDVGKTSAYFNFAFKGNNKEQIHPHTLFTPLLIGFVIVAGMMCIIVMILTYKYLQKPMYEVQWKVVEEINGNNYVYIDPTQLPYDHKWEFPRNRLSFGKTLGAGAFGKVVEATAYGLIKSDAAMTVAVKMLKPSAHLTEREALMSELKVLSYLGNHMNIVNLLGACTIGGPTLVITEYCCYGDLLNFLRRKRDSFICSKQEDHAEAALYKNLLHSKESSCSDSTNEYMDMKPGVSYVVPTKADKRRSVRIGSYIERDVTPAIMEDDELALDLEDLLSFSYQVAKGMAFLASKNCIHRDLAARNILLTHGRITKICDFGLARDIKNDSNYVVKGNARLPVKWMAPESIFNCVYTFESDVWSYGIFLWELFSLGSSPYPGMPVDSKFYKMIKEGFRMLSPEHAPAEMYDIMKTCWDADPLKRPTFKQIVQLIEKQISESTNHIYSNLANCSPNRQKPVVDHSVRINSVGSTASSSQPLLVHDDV
T11 sequence (Q9UK32 whole entry): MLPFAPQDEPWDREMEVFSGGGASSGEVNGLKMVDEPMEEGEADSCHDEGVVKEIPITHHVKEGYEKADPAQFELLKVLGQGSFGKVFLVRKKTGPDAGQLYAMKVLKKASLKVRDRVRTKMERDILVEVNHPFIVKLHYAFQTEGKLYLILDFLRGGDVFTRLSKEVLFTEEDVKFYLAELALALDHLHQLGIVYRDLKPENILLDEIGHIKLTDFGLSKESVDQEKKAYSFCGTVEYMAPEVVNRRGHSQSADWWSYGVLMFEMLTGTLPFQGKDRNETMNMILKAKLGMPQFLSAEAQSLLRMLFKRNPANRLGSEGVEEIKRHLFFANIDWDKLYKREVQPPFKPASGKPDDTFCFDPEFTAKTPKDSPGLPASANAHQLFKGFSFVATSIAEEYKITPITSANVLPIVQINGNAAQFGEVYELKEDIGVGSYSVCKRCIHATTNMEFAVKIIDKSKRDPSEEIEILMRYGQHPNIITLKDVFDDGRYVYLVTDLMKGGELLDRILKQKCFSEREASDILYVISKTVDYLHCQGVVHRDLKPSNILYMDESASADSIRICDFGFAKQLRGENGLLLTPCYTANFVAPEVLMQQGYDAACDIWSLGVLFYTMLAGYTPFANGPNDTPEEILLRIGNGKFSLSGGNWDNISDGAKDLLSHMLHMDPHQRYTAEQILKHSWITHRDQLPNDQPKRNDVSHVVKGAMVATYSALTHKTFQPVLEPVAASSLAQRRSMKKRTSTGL

With `COc1ccnc2[nH]cc(-c3cc(N)nc(N)c3)c12` [meriolin 16] the residual kinase activity ([1]; 0.03 µM) was 106 % of control, the residual kinase activity ([1]; 0.3 µM) was 88 % of control and the residual kinase activity ([2]; 0.03 µM) was 54 % of control. For the same molecule, the residual kinase activity ([2]; 0.3 µM) was 23 % of control, the residual kinase activity ([3]; 0.03 µM) was 63 % of control and the residual kinase activity ([3]; 0.3 µM) was 58 % of control. For the same molecule, the residual kinase activity ([4]; 0.03 µM) was 80 % of control, the residual kinase activity ([4]; 0.3 µM) was 66 % of control and the residual kinase activity ([5]; 0.03 µM) was 6 % of control. The residual kinase activity ([5]; 0.3 µM) was 1 % of control, the residual kinase activity ([6]; 0.03 µM) was 97 % of control and the residual kinase activity ([6]; 0.3 µM) was 90 % of control. The residual kinase activity ([7]; 0.03 µM) was 56 % of control, the residual kinase activity ([7]; 0.3 µM) was 8 % of control and the residual kinase activity ([8]; 0.03 µM) was 96 % of control. For the same molecule, the residual kinase activity ([8]; 0.3 µM) was 91 % of control, the residual kinase activity ([9]; 0.03 µM) was 66 % of control and the residual kinase activity ([9]; 0.3 µM) was 48 % of control. The residual kinase activity ([10]; 0.03 µM) was 99 % of control, the residual kinase activity ([10]; 0.3 µM) was 87 % of control and the residual kinase activity ([11]; 0.03 µM) was 84 % of control. The residual kinase activity ([11]; 0.3 µM) was 48 % of control, the residual kinase activity ([12]; 0.03 µM) was 70 % of control and the residual kinase activity ([12]; 0.3 µM) was 96 % of control. For the same molecule, the residual kinase activity ([13]; 0.03 µM) was 75 % of control, the residual kinase activity ([13]; 0.3 µM) was 43 % of control and the residual kinase activity ([14]; 0.03 µM) was 83 % of control. The residual kinase activity ([14]; 0.3 µM) was 77 % of control.

`c1ccc(CNc2cc(-c3c[nH]c4ncccc34)ccn2)cc1` [meriolin 36] was tested, and the residual kinase activity ([1]; 0.3 µM) was 72 % of control, the residual kinase activity ([1]; 3 µM) was 32 % of control and the residual kinase activity ([2]; 0.3 µM) was 6 % of control. The residual kinase activity ([2]; 3 µM) was 5 % of control, the residual kinase activity ([3]; 0.3 µM) was 66 % of control and the residual kinase activity ([3]; 3 µM) was 22 % of control. The residual kinase activity ([4]; 0.3 µM) was 18 % of control, the residual kinase activity ([4]; 3 µM) was 2 % of control and the residual kinase activity ([5]; 0.3 µM) was 31 % of control. The residual kinase activity ([5]; 3 µM) was 4 % of control, the residual kinase activity ([6]; 0.3 µM) was 89 % of control and the residual kinase activity ([6]; 3 µM) was 68 % of control. For the same molecule, the residual kinase activity ([7]; 0.3 µM) was 64 % of control, the residual kinase activity ([7]; 3 µM) was 19 % of control and the residual kinase activity ([8]; 0.3 µM) was 82 % of control. For the same molecule, the residual kinase activity ([8]; 3 µM) was 36 % of control, the residual kinase activity ([9]; 0.3 µM) was 13 % of control and the residual kinase activity ([9]; 3 µM) was 3 % of control. For the same molecule, the residual kinase activity ([10]; 3 µM) was 90 % of control, the residual kinase activity ([11]; 0.3 µM) was 13 % of control and the residual kinase activity ([11]; 3 µM) was 3 % of control. For the same molecule, the residual kinase activity ([12]; 0.3 µM) was 89 % of control, the residual kinase activity ([12]; 3 µM) was 46 % of control and the residual kinase activity ([13]; 0.3 µM) was 12 % of control. For the same molecule, the residual kinase activity ([13]; 3 µM) was 2 % of control, the residual kinase activity ([14]; 0.3 µM) was 4 % of control and the residual kinase activity ([14]; 3 µM) was 1 % of control.
